Legend:
NCI-H460 = experiment: High-throughput calcein AM cytotoxicity assay, NCI-H460; type: cell-based, human; conditions: NCI-H460 cells; read-out: IC50, NCI-H460
Description: (§1) Standard errors are depicted with error bars.

A549 = experiment: High-throughput calcein AM cytotoxicity assay, A549; type: cell-based, human; conditions: A549 cells; read-out: IC50, A549
Description: as §1

Du145 = experiment: High-throughput calcein AM cytotoxicity assay, Du145; type: cell-based, human; conditions: Du145 cells; read-out: IC50, Du145
Description: as §1

MCF7 = experiment: High-throughput calcein AM cytotoxicity assay, MCF7; type: cell-based, human; conditions: MCF7 cells; read-out: IC50, MCF7
Description: as §1

NmuMG = experiment: cells; type: cell-based, mouse; conditions: NmuMG mouse mammary normal epithelial control line; read-out: IC50, NmuMG
Description: (§2) In the assay, live cells were distinguished by the presence of a ubiquitous intracellular enzymatic activity which converts the non-fluorescent cell-permeable molecule calcein AM to the intensely fluorescent molecule calcein, which is retained within live cells. The IC50 value for each library member represents at least six replicates of dose-response experiments conducted over five concentrations using two-fold dilutions. […] Standard errors are depicted with error bars. Numerical values and corresponding error values can be found in Table 4. Du145: […]; MCF7: human breast carcinoma; HCT-116: human colon carcinoma, Hep3B: human liver carcinoma; SF-268: human CNS glioblastoma; SK-OV-3: human ovary adenocarcinoma; NCI-H460: human lung carcinoma; A549: human lung adenocarcinoma; NCI/ADR-RES: human breast carcinoma; NmuMG: mouse mammary normal epithelial.
(§3) Cell Culture: All cell lines except NmuMG were maintained in RPMI 1640 medium from InVitrogen (Cat No. 11875-085) supplemented with 10% w/v fetal bovine serum (FBS) from ICN (Cat No. 2916154) and penicillin-streptomycin (PS) (100 U/mL and 100 μg/mL) from InVitrogen (Cat No. 15140-122). NmuMG cells were maintained in DMEM medium from InVitrogen (Cat No. 11965-084) supplemented with 10% w/v fetal bovine serum (FBS) from ICN (Cat No. 2916154), 10 μg/ml insulin (InVitrogen Cat No 12585-014), and penicillin-streptomycin (PS) (100 U/mL and 100 μg/mL) from InVitrogen (Cat No. 15140-122). Cells were harvested by trypsinization using 0.25% w/v trypsin and 0.1% w/v EDTA from InVitrogen (Cat No. 15-050-057) and then counted in a hemocytometer in duplicate with better than 10% agreement in field counts. Cells were plated at a cell density of 10,000-15,000 cells/well of each Corning Costar 96-well black tissue culture treated microtiter plate (Fisher Cat No. 07-200-627). Cells were grown for 1 h at 37° C., with 5% CO2 in a humidified incubator to allow cell attachment to occur before compound addition.
(§4) Library Member Handling and Preparation for Cytotoxicity Assays: Library members were stored at −20° C. under dessicating conditions before the assay. Library member stocks (100×) were prepared in Corning Costar polypropylene 96-well V-bottom polypropylene microtiter plates (Fisher Cat No. 07-200-695). Five serial 1:2 dilutions were made with anhydrous DMSO at 100× the final concentration used in the assay.
(§5) Library Member Addition: The library member-containing plates were diluted 1:10 with complete cell culture media. The 10× stocks (10 μL) were added to the attached cells using a Biomek FX liquid handler (Beckman-Coulter). Library member stocks (10 μL) were added to 90 μL of cells in each plate to insure full mixing of stocks with culture media using a Beckman FX liquid handler with 96-well head.
(§6) Determination of Cytotoxicity: Cells were incubated with the library members for 72 h before fluorescence reading. Test plates were removed from the incubator and washed 1× in sterile PBS to remove serum containing calcium esterases. Calcein AM reagent (30 μL, […]) was added and the cells were incubated for 30 min at 37° C. Plates were read for emission using a fluorescein filter (excitation 485 nm, emission 535 nm).
(§7) IC50 Calculation: For each library member, at least six dose response experiments were conducted. […] To calculate IC50, percent inhibitions were plotted as a function of log [concentration] and then fit to a four-parameter logistic model that allowed for a variable Hill slope using XLfit 4.1.
(§8) Cytotoxicity Assays. All cell lines except NmuMG were maintained in RPMI 1640 medium supplemented with 10% w/v fetal bovine serum (FBS) and penicillin-streptomycin (PS) (100 U/mL and 100 μg/mL).

Hep3B = experiment: High-throughput calcein AM cytotoxicity assay, Hep3B; type: cell-based, human; conditions: Hep 3B cells; read-out: IC50, Hep 3B
Description: as §1

SK-OV-3 = experiment: cells; type: cell-based, human; conditions: SK-OV-3 cells; read-out: IC50, SK-OV-3
Description: as §2, §3, §4, §5, §6, §7, §8

NCI/ADR-RES = experiment: cells; type: cell-based, human; conditions: NCI/ADR-RES cells; read-out: IC50, NCI/ADR-RES
Description: as §2, §3, §4, §5, §6, §7, §8

SF-268 = experiment: cells; type: cell-based, human; conditions: SF-268 cells; read-out: IC50, SF-268
Description: as §2, §3, §4, §5, §6, §7, §8

HCT-116 = experiment: High-throughput calcein AM cytotoxicity assay, HCT-116; type: cell-based, human; conditions: HCT-116 cells; read-out: IC50, HCT-116
Description: as §1

| SMILES | IC50 (NCI-H460) [µM] | IC50 (A549) [µM] | IC50 (Du145) [µM] | IC50 (MCF7) [µM] | IC50 (NmuMG) [µM] | IC50 (Hep3B) [µM] | IC50 (SK-OV-3) [µM] | IC50 (NCI/ADR-RES) [µM] | IC50 (SF-268) [µM] | IC50 (HCT-116) [µM] |
| --- | --- | --- | --- | --- | --- | --- | --- | --- | --- | --- |
| CON(C1CCC2(C)C(CCC3C2CCC2(C)C(C4=CC(=O)OC4)CCC32O)C1)C1OC(CO)C(O)CC1O [10α, 3-deoxy-D-glucoside] | > 25 | > 25 | > 25 | > 25 | > 25 | > 25 | > 25 | > 25 | > 25 | > 25 |
| CON([C@H]1CC[C@@]2(C)[C@H](CC[C@@H]3[C@@H]2CC[C@]2(C)[C@@H](C4=CC(=O)OC4)CC[C@]32O)C1)[C@@H]1O[C@H](CO)[C@@H](O)C[C@H]1O [10β, 3-deoxy-D-glucoside] | 1.6 | 1.6 | 0.8 | 0.46 | 0.94 | 1.7 | 2.5 | 0.44 | 0.77 | 1.8 |
| CON(C1CCC2(C)C(CCC3C2CCC2(C)C(C4=CC(=O)OC4)CCC32O)C1)C1OC(C)C(O)C(O)C1O [11α, 6-deoxy-D-glucoside] | > 25 | > 25 | > 25 | > 25 | > 25 | > 25 | > 25 | > 25 | > 25 | > 25 |
| CON(C1CCC2(C)C(CCC3C2CCC2(C)C(C4=CC(=O)OC4)CCC32O)C1)C1OC(C)C(O)C(O)C1O [11β, 6-deoxy-D-glucoside] | 1 | 1.2 | 6 | 1.9 | > 25 | 4.4 | 4 | 0.95 | 2.5 | 2.3 |
| CON(C1CCC2(C)C(CCC3C2CCC2(C)C(C4=CC(=O)OC4)CCC32O)C1)C1OC(CO)C(O)C(O)C1F [12α, 2-deoxy-2-fluoro-D-glucoside] | > 25 | > 25 | > 25 | > 25 | > 25 | > 25 | > 25 | > 25 | > 25 | > 25 |
| CON([C@H]1CC[C@@]2(C)[C@H](CC[C@@H]3[C@@H]2CC[C@]2(C)[C@@H](C4=CC(=O)OC4)CC[C@]32O)C1)[C@@H]1O[C@H](CO)[C@@H](O)[C@H](O)[C@H]1F [12β, 2-deoxy-2-fluoro-D-glucoside] | 2.9 | 3.7 | 9 | 8 | > 25 | 8 | 9 | 2.6 | 7 | 8 |
| CON(C1CCC2(C)C(CCC3C2CCC2(C)C(C4=CC(=O)OC4)CCC32O)C1)C1OC(CF)C(O)C(O)C1O [13α, 6-deoxy-6-fluoro-D-glucoside] | > 25 | > 25 | > 25 | > 25 | > 25 | > 25 | > 25 | > 25 | > 25 | > 25 |
| CON([C@H]1CC[C@@]2(C)[C@H](CC[C@@H]3[C@@H]2CC[C@]2(C)[C@@H](C4=CC(=O)OC4)CC[C@]32O)C1)[C@@H]1O[C@H](CF)[C@@H](O)[C@H](O)[C@H]1O [13β, 6-deoxy-6-fluoro-D-glucoside] | 1.4 | 2 | 5 | 6.2 | > 25 | 4.6 | 3.4 | 1.1 | 4.7 | 4.8 |

Source: patent publication US8507411B2, “Neoglycorandomization and digitoxin analogs” (priority 2004, dated 2013)
